target: HIV-1 pNL4-3 integrase (Human immunodeficiency virus type 1 group M subtype B (isolate NY5) (HIV-1), UniProt P12497); assay: Determination of enzyme (HIV integrase) inhibitory activity; assay type: biochemical; details: calculated from inhibition rate (fluorescence)
Experimental: The following explains evaluation methods of the HIV integrase inhibitory activity of the compound of the present invention.
A full-length gene sequence (Accession No.: M19921) of HIV-1 pNL4-3 integrase was inserted into restriction enzyme Nde I and Xho I sites of plasmid pET21a(+) (manufactured by Novagen) to construct an integrase expression vector pET21a-IN-Wild type.
Escherichia coli recombinant BL21(DE3) transformed with plasmid pET21a-IN-Wild type obtained in (i) was shake cultured at 30° C. in a liquid medium containing ampicillin. When the culture reached the logarithmic growth phase, isopropyl-β-D-thiogalactopyranoside was added to promote expression of integrase gene. The culture was continued for 5 hr to promote accumulation of the integrase protein. The recombinant E. coli was collected in pellets by centrifugal separation and preserved at −80° C.
This Escherichia coli was suspended in Lysis buffer (50 mM Tris-HCl (pH 7.6), 10 mM MgCl2, 5 mM DTT), and disrupted by repeating treatments of pressurization and depressurization, and insoluble fraction was collected by centrifugation at 4° C., 18,000 rpm for 60 min. This was suspended in Lysis buffer containing a protease inhibitor, […] and 10 mM CHAPS were added, and the mixture was stirred at 4° C. for 30 min. Water-soluble fraction was collected by centrifugation at 4° C., 9,000 rpm for 30 min. The obtained fraction was diluted with a column buffer (50 mM Tris-HCl (pH 7.6), 1 mM DTT, 10% Glycerol, 10 mM CHAPS) to 5-fold, and the mixture was applied to heparin column (HiPrep 16/10 Heparin FF column: manufactured by GE Healthcare Bio-Sciences). Using a column buffer containing 1M NaCl, a protein was eluted with 0-1M NaCl concentration gradient, and an eluted fraction containing an integrase protein was collected. The obtained fraction was diluted 5-fold with a column buffer (50 mM Tris-HCl (pH 7.6), 1 mM DTT, 10% Glycerol, 10 mM CHAPS), and the mixture was applied to cation exchange column (Mono-S column: manufactured by GE Healthcare Bio-Sciences). Using a column buffer containing 1M NaCl, a protein was eluted with 0-1M NaCl concentration gradient, and an eluted fraction containing an integrase protein was collected. The obtained fractions of the integrase protein were collected, and preserved at −80° C.
The following DNA synthesized by FASMAC was dissolved in TE buffer (10 mM Tris-hydrochloric acid (pH 8.0), 1 mM EDTA) and mixed with donor DNA, target DNA, and each complementary strand (+ and − strands) to 1 μM. The mixture was heated at 95° C. for 5 min, 80° C. for 10 min, 70° C. for 10 min, 60° C. for 10 min, 50° C. for 10 min and 40° C. for 10 min and kept at 25° C. to give a double stranded DNA, which was used for the test.
Donor DNA (+strand having biotin attached to the 5′ terminal)
Target DNA (+, − strands both having digoxigenin attached to the 3′ terminal)
The donor DNA was diluted with TE buffer to 20 nM, of which 50 μL was added to each well of streptavidin-coated black plate (manufactured by PIAS Corporation) and allowed to adsorb at 37° C. for 20 min. The plate was washed with phosphate buffer (Dulbecco's PBS, Sanko Junyaku Co., Ltd.) containing 0.1% Tween 20 and phosphate buffer. Then, an enzyme reaction mixture (70 μL), a test substance (10 μL) diluted with the enzyme reaction mixture and 0.75 μM integrase protein (10 μL) were added to each well and the mixture was reacted at 37° C. for 60 min. composition of enzyme reaction mixture: 30 mM MOPS (3-morpholinopropanesulfonic acid), 5 mM magnesium chloride, 3 mM DTT (dithiothreitol), 0.1 mg/mL BSA (bovine serum albumin), 5% glycerol, 10% DMSO (dimethyl sulfoxide), 0.01% Tween 20.
Then, 25 nM target DNA (10 μL) was added, and the mixture was reacted at 37° C. for 20 min and washed with phosphate buffer containing 0.1% Tween 20 to stop the reaction. […]

Q: With `CC(C)N1C[C@](C)(C(=O)N2CCC2)n2cc(-c3nnc(Cc4ccc(F)cc4)s3)c(=O)c(O)c2C1=O` [Example 2] as the compound, how does the IC50 read?
A: 13 nM

Q: With `CCC(=O)N(C)CC1(C)CN(C(C)C)C(=O)c2c(O)c(=O)c(-c3ncc(Cc4ccc(F)cc4F)s3)cn21` (centres unmarked) [Example 7] as the compound, how does the IC50 read?
A: 13 nM

Q: With `CC(C)N1CC2(CCOCC2)n2cc(-c3nnc(Cc4ccc(F)cc4F)s3)c(=O)c(O)c2C1=O` [Example 8] as the compound, how does the IC50 read?
A: 8.9 nM

Q: For `COCC1CN(C(C)C)C(=O)c2c(O)c(=O)c(-c3nnc(Cc4ccc(F)cc4F)s3)cn21` (centres unmarked) [Example 18], which IC50 is on record?
A: 8.2 nM

Q: With `CC(C)N1CC(CO)n2cc(-c3ncc(Cc4ccc(F)cc4F)s3)c(=O)c(O)c2C1=O` (centres unmarked) [Example 19] as the compound, how does the IC50 read?
A: 8.1 nM

Q: Which IC50 does the source give for `CC(C)N1CC(C)(CO)n2cc(-c3ncc(Cc4ccc(F)cc4F)s3)c(=O)c(O)c2C1=O` (centres unmarked) [Example 20] here?
A: 17 nM

Q: Which IC50 does the source give for `CC(C)N1CC(CC(=O)N(C)C)n2cc(-c3ncc(Cc4ccc(F)cc4F)s3)c(=O)c(O)c2C1=O` (centres unmarked) [Example 21] here?
A: 9.4 nM

Q: For `CNC(=O)C1CN(C(C)C)C(=O)c2c(O)c(=O)c(-c3ncc(Cc4ccc(F)cc4F)s3)cn21` (centres unmarked) [Example 22], which IC50 is on record?
A: 7 nM

Q: How did the IC50 turn out when `CC(C)N1CC(C(=O)O)n2cc(-c3ncc(Cc4ccc(F)cc4F)s3)c(=O)c(O)c2C1=O` (centres unmarked) [Example 23] was run?
A: 12 nM

Q: Which IC50 does the source give for `CC(C)N1CC(C)(C(=O)O)n2cc(-c3ncc(Cc4ccc(F)cc4F)s3)c(=O)c(O)c2C1=O` (centres unmarked) [Example 24] here?
A: 23 nM

Q: How did the IC50 turn out when `CCNC(=O)C1CN(C(C)C)C(=O)c2c(O)c(=O)c(-c3ncc(Cc4ccc(F)cc4F)s3)cn21` (centres unmarked) [Example 25] was run?
A: 11 nM

Q: `CC(C)N1CC(C(=O)N(C)C)n2cc(-c3ncc(Cc4ccc(F)cc4F)s3)c(=O)c(O)c2C1=O` (centres unmarked) [Example 26] was tested. Which IC50 did it give?
A: 7.6 nM

Q: How did the IC50 turn out when `CCNC(=O)C1(C)CN(C(C)C)C(=O)c2c(O)c(=O)c(-c3ncc(Cc4ccc(F)cc4F)s3)cn21` (centres unmarked) [Example 27] was run?
A: 10 nM

Q: Which IC50 does the source give for `CC(C)N1CC(C)(C(=O)N(C)C)n2cc(-c3ncc(Cc4ccc(F)cc4F)s3)c(=O)c(O)c2C1=O` (centres unmarked) [Example 28] here?
A: 15 nM

Q: With `CNC(=O)C1(C)CN(C(C)C)C(=O)c2c(O)c(=O)c(-c3ncc(Cc4ccc(F)cc4F)s3)cn21` (centres unmarked) [Example 29] as the compound, how does the IC50 read?
A: 10 nM

Q: With `O=C1c2c(O)c(=O)c(-c3nnc(Cc4ccc(F)cc4F)s3)cn2C2(CCOCC2)CN1C1CC1` [Example 30] as the compound, how does the IC50 read?
A: 9 nM

Q: With `CC(C)NC(=O)C1CN(C(C)C)C(=O)c2c(O)c(=O)c(-c3ncc(Cc4ccc(F)cc4F)s3)cn21` (centres unmarked) [Example 31] as the compound, how does the IC50 read?
A: 8.3 nM

Q: With `CC(C)CNC(=O)C1CN(C(C)C)C(=O)c2c(O)c(=O)c(-c3ncc(Cc4ccc(F)cc4F)s3)cn21` (centres unmarked) [Example 32] as the compound, how does the IC50 read?
A: 7.7 nM

Q: With `CC(C)N1CC(CC(=O)O)n2cc(-c3ncc(Cc4ccc(F)cc4F)s3)c(=O)c(O)c2C1=O` (centres unmarked) [Example 33] as the compound, how does the IC50 read?
A: 6.2 nM

Q: With `CNC(=O)CC1CN(C(C)C)C(=O)c2c(O)c(=O)c(-c3ncc(Cc4ccc(F)cc4F)s3)cn21` (centres unmarked) [Example 34] as the compound, how does the IC50 read?
A: 8.2 nM

Q: `CC(C)N1CC(CC(N)=O)n2cc(-c3ncc(Cc4ccc(F)cc4F)s3)c(=O)c(O)c2C1=O` (centres unmarked) [Example 35] was tested. Which IC50 did it give?
A: 6.7 nM

Q: For `CC(C)NC(=O)CC1CN(C(C)C)C(=O)c2c(O)c(=O)c(-c3ncc(Cc4ccc(F)cc4F)s3)cn21` (centres unmarked) [Example 36], which IC50 is on record?
A: 13 nM

Q: `CC(C)N1C(=O)c2c(O)c(=O)c(-c3nnc(Cc4ccc(F)cc4F)s3)cn2CC1CO` (centres unmarked) [Example 37] was tested. Which IC50 did it give?
A: 6.3 nM

Q: Which IC50 does the source give for `CC(C)N1CC(C)(C(=O)N2CCCCC2)n2cc(-c3ncc(Cc4ccc(F)cc4F)s3)c(=O)c(O)c2C1=O` (centres unmarked) [Example 38] here?
A: 12 nM

Q: For `CC(C)N1CC(C)(C(=O)N2CCCC2)n2cc(-c3ncc(Cc4ccc(F)cc4F)s3)c(=O)c(O)c2C1=O` (centres unmarked) [Example 39], which IC50 is on record?
A: 10 nM

Q: With `CC(C)CNC(=O)CC1CN(C(C)C)C(=O)c2c(O)c(=O)c(-c3ncc(Cc4ccc(F)cc4F)s3)cn21` (centres unmarked) [Example 40] as the compound, how does the IC50 read?
A: 13 nM

Q: For `CC(C)N1CC(CC(=O)N2CCCCC2)n2cc(-c3ncc(Cc4ccc(F)cc4F)s3)c(=O)c(O)c2C1=O` (centres unmarked) [Example 41], which IC50 is on record?
A: 7.2 nM

Q: For `COCC1Cn2cc(-c3nnc(Cc4ccc(F)cc4F)s3)c(=O)c(O)c2C(=O)N1C(C)C` (centres unmarked) [Example 42], which IC50 is on record?
A: 3.4 nM

Q: Which IC50 does the source give for `COCC1Cn2cc(-c3nnc(Cc4ccc(F)cc4F)s3)c(=O)c(O)c2C(=O)N1CC(C)C` (centres unmarked) [Example 43] here?
A: 4.6 nM

Reference: patent US10065950B2, “Substituted thiazoles as HIV integrase inhibitors” (Japan Tobacco Inc., priority 2010, dated 2018)
